≈ marks a conversion by molar mass, not a printed value.
Experiments:
[1] = tested on: H9 (acute lymphoblastic leukemia, ALL); experiment: Leukemia cell growth inhibition, MTT, 72 h (Example 5); assay type: cell-based, human; settings: Homo sapiens; 72 h, MTT
Excerpt: (§1) Leukemia cell lines: leukemia cell lines: K562/adr (drug-resistant, chronic myeloid leukemia, CML), NB4 (acute promyelocytic leukemia, AML), Kasumi-1 (acute myeloid leukemia M2 type, AML-M2), Jurkat (acute lymphoblastic leukemia, ALL), all of which are donated by Cancer Research Institute of Zhejiang University, China; and H9 (acute lymphoblastic leukemia, ALL), which is purchased from China Center for Type Culture Collection.
(§2) Reagents: The standard sample of tetrandrine (TTD) is purchased from Ci Yuan Biotechnology Co., Ltd., Shaanxi, China; and the 5-substituted tetrandrine derivatives of the present invention.
(§3) Obtaining 6000 well-growing leukemia cells and inoculating them into wells of a 96-well cell culture plate. The culture medium is a 1640 cell culture medium containing 10% fetal bovine serum. After adding the tetrandrine derivatives of different concentrations and mixing uniformly, placing the plate in a carbon dioxide cell incubator (5% CO2) at 37° C. and incubating for 72 hours. Then the viable cell concentration is determined by the MTT method.

[2] = tested on: Jurkat (acute lymphoblastic leukemia, ALL); experiment: as above; assay type: cell-based, human; settings: Homo sapiens, Jurkat; 72 h, MTT
Excerpt: as §1, §2, §3

[3] = tested on: K562/adr (drug-resistant, chronic myeloid leukemia, CML); experiment: as above; assay type: cell-based, human; settings: for IC50 / IC90: Homo sapiens, K562/Adr, 72 h, MTT
Excerpt: as §1, §2, §3

[4] = tested on: Kasumi-1 (acute myeloid leukemia M2 type, AML-M2); experiment: as above; assay type: cell-based, human; settings: Homo sapiens, Kasumi 1
Excerpt: as §1, §2, §3

[5] = tested on: NB4 (acute promyelocytic leukemia, AML); experiment: as above; assay type: cell-based, human; settings: Homo sapiens; 72 h, MTT
Excerpt: as §1, §2, §3

[6] = tested on: RPMI8226 (multiple myeloma); experiment: Multiple myeloma cell growth inhibition, MTT, 72 h (Example 6); assay type: cell-based, human; settings: for IC50 / IC90: Homo sapiens, RPMI-8226, 72 h, MTT, RPMI8226
Description: Multiple myeloma and lymphoma cell lines: RPMI8226 (multiple myeloma), purchased from Fuxiang Bio-tech Co. Ltd., Shanghai, China.
(§4) Reagents: the same as in Example 5.
as §3, with “incubated” for “incubating”

[7] = tested on: CaES-17 (esophageal cancer cell); experiment: Solid tumor cell growth inhibition, MTT, 72 h (Example 7); assay type: cell-based, human; settings: Homo sapiens, CaEs17; 72 h, MTT, CAES-17
Description: (§5) Human solid tumor cell lines: Hep-2 (laryngeal carcinoma), A549 (human lung cancer), CaES-17 (esophageal cancer cell), PC-3 (prostate cancer), CNE (nasopharyngeal carcinoma cell) and SK-OV-3 (ovarian cancer cell), all of which are purchased from China Center For Type Culture Collection; RKO (human colon adenocarcinoma cell), MGC 803 (human gastric cancer cell), MG63 (osteosarcoma), and U87 MG (malignant glioma cell), all of which are purchased from Fuxiang Bio-tech Co. Ltd., Shanghai, China; PANC-1 (pancreatic cancer), Huh? (human liver cancer cell), Becap37 (human breast cancer cell), and Hela (human cervical cancer cell), all of which are donated by Cancer Research Institute of Zhejiang University, China.
as §4
(§6) Obtaining 4000 well-growing human solid tumor cells and inoculating them into wells of a 96-well cell culture plate. The culture medium is DMEM High Glucose cell culture medium containing 10% fetal bovine serum. The plate is placed in a carbon dioxide cell incubator (5% CO2) at 37° C. and incubated for 24 hours. After been added with tetrandrine derivatives of different concentration and mixing uniformly, the plate is placed in a carbon dioxide cell incubator (5% CO2) at 37° C. and incubated for 72 hours. Then the viable cell concentration is determined by the MTT method and the cell viability (%) after drug treatment is calculated. In this experiment, the cell viability of control group (not treated with any compound) is set as 100%.

[8] = tested on: MG63 (osteosarcoma); experiment: as above; assay type: cell-based, human; settings: Homo sapiens; 72 h, MTT, MG-63
Description: as §5, §4, §6

[9] = tested on: PANC-1 (pancreatic cancer); experiment: as above; assay type: cell-based, human; settings: Homo sapiens; 72 h, MTT, PANC-1
Description: as §5, §4, §6

[10] = tested on: PC-3 (prostate cancer); experiment: as above; assay type: cell-based, human; settings: Homo sapiens; 72 h, MTT, PC-3
Description: as §5, §4, §6

[11] = tested on: A549 (human lung cancer); experiment: as above; assay type: cell-based; settings: Homo sapiens; 72 h, MTT, A549
Description: as §5, §4, §6

[12] = tested on: Becap37 (human breast cancer cell); experiment: as above; assay type: cell-based; settings: Homo sapiens; 72 h, MTT, Becap-37
Description: as §5, §4, §6

[13] = tested on: Huh7 (human liver cancer cell); experiment: as above; assay type: cell-based; settings: Homo sapiens; 72 h, MTT, Huh-7
Description: as §5, §4, §6

[14] = tested on: MGC 803 (human gastric cancer cell); experiment: as above; assay type: cell-based; settings: Homo sapiens
Description: as §5, §4, §6

[15] = tested on: RKO (human colon adenocarcinoma cell); experiment: as above; assay type: cell-based; settings: Homo sapiens; 72 h, MTT, RKO
Description: as §5, §4, §6

| IC50 [1] [µg/mL] | IC90 [1] [µg/mL] | IC50 [2] [µg/mL] | IC90 [2] [µg/mL] | IC50 [3] [µg/mL] | IC90 [3] [µg/mL] | IC50 [4] [µg/mL] | IC90 [4] [µg/mL] | IC50 [6] [µg/mL] | IC90 [6] [µg/mL] | IC50 [7] [µg/mL] | IC90 [7] [µg/mL] | IC50 [8] [µg/mL] | IC90 [8] [µg/mL] | IC50 [9] [µg/mL] | IC90 [9] [µg/mL] | IC50 [11] [µg/mL] | IC90 [11] [µg/mL] | IC50 [12] [µg/mL] | IC90 [12] [µg/mL] | SMILES | further results |
| --- | --- | --- | --- | --- | --- | --- | --- | --- | --- | --- | --- | --- | --- | --- | --- | --- | --- | --- | --- | --- | --- |
| 0.87 (≈ 1.21 µM) | 1.99 (≈ 2.76 µM) | 3.08 (≈ 4.27 µM) | 13.2 (≈ 18.4 µM) | 0.25 (≈ 0.346 µM) | 7.8 (≈ 10.8 µM) | 1 (≈ 1.39 µM) | 4.79 (≈ 6.64 µM) | 0.07 (≈ 0.097 µM) | 0.42 (≈ 0.582 µM) | 1.1 (≈ 1.52 µM) | 18.8 (≈ 26.1 µM) | 0.82 (≈ 1.14 µM) | 2.32 (≈ 3.21 µM) | 3.47 (≈ 4.81 µM) | 8.88 (≈ 12.3 µM) | 2.3 (≈ 3.19 µM) | 8 (≈ 11.1 µM) | 1.79 (≈ 2.48 µM) | 6.94 (≈ 9.61 µM) | COc1ccc2cc1Oc1ccc(cc1)C[C@H]1c3cc(c(OC)cc3CCN1C)Oc1c(OC)c(OC)c(CN3CCOCC3)c3c1[C@H](C2)N(C)CC3 [BS-TE-307] | IC50 [5]: 0.73 µg/mL (≈ 1.01 µM); IC90 [5]: 4.35 µg/mL (≈ 6.03 µM); IC50 [10]: 2.88 µg/mL (≈ 3.99 µM); IC90 [10]: 6.99 µg/mL (≈ 9.68 µM); IC50 [13]: 3 µg/mL (≈ 4.16 µM); IC90 [13]: 4.9 µg/mL (≈ 6.79 µM); IC50 [14]: 3.74 µg/mL (≈ 5.18 µM); IC90 [14]: 14.1 µg/mL (≈ 19.6 µM); IC50 [15]: 0.95 µg/mL (≈ 1.32 µM); IC90 [15]: 3.27 µg/mL (≈ 4.53 µM) |
| 2.6 (≈ 3.66 µM) | 4.83 (≈ 6.8 µM) | 4.53 (≈ 6.38 µM) | 11 (≈ 15.6 µM) | 4.78 (≈ 6.73 µM) | 10.4 (≈ 14.7 µM) | 1.99 (≈ 2.8 µM) | 7.72 (≈ 10.9 µM) | 0.3 (≈ 0.423 µM) | 2.07 (≈ 2.92 µM) | 2.4 (≈ 3.38 µM) | 20.8 (≈ 29.4 µM) | 1.41 (≈ 1.99 µM) | 3.11 (≈ 4.38 µM) | 5.89 (≈ 8.3 µM) | 14.7 (≈ 20.7 µM) | 1.96 (≈ 2.76 µM) | 9.36 (≈ 13.2 µM) | 2.95 (≈ 4.16 µM) | 9.79 (≈ 13.8 µM) | COc1ccc2cc1Oc1ccc(cc1)C[C@H]1c3cc(c(OC)cc3CCN1C)Oc1c(OC)c(OC)c(CNCC(C)O)c3c1[C@H](C2)N(C)CC3 (some centres unmarked) [BS-TE-315] | IC50 [5]: 1.63 µg/mL (≈ 2.3 µM); IC90 [5]: 5.66 µg/mL (≈ 7.97 µM); IC50 [10]: 6.41 µg/mL (≈ 9.03 µM); IC90 [10]: 8 µg/mL (≈ 11.3 µM); IC50 [13]: 3.07 µg/mL (≈ 4.32 µM); IC90 [13]: 4.98 µg/mL (≈ 7.02 µM); IC50 [14]: 3.63 µg/mL (≈ 5.11 µM); IC90 [14]: 10.5 µg/mL (≈ 14.7 µM); IC50 [15]: 1.64 µg/mL (≈ 2.31 µM); IC90 [15]: 3.39 µg/mL (≈ 4.78 µM) |
| 2.88 (≈ 3.6 µM) | 5.84 (≈ 7.3 µM) | 2.66 (≈ 3.33 µM) | 9.06 (≈ 11.3 µM) | 1.47 (≈ 1.84 µM) | 14.5 (≈ 18.1 µM) | 2.32 (≈ 2.9 µM) | 7.5 (≈ 9.38 µM) | 0.47 (≈ 0.588 µM) | 1.92 (≈ 2.4 µM) | 6.81 (≈ 8.51 µM) | 16.6 (≈ 20.8 µM) | 1.72 (≈ 2.15 µM) | 4.69 (≈ 5.86 µM) | 6.47 (≈ 8.09 µM) | 11.1 (≈ 13.9 µM) | 3.12 (≈ 3.9 µM) | 14.2 (≈ 17.7 µM) | 3.66 (≈ 4.58 µM) | 6.19 (≈ 7.74 µM) | COc1ccc2cc1Oc1ccc(cc1)C[C@H]1c3cc(c(OC)cc3CCN1C)Oc1c(OC)c(OC)c(COC(=O)c3ccc(N(C)C)cc3)c3c1[C@H](C2)N(C)CC3 [BS-TE-204] | IC50 [10]: 6.55 µg/mL (≈ 8.19 µM); IC90 [10]: 9 µg/mL (≈ 11.3 µM); IC50 [13]: 2.08 µg/mL (≈ 2.6 µM); IC90 [13]: 3.88 µg/mL (≈ 4.85 µM); IC50 [14]: 2.57 µg/mL (≈ 3.21 µM); IC90 [14]: 9 µg/mL (≈ 11.3 µM); IC50 [15]: 3.12 µg/mL (≈ 3.9 µM); IC90 [15]: 4.7 µg/mL (≈ 5.88 µM) |
| 1.19 (≈ 1.69 µM) | 2 (≈ 2.84 µM) | 0.91 (≈ 1.29 µM) | 3.31 (≈ 4.7 µM) | 0.1 (≈ 0.142 µM) | 1.33 (≈ 1.89 µM) | 0.5 (≈ 0.71 µM) | 3.4 (≈ 4.83 µM) | 0.004 (≈ 0.00568 µM) | 0.29 (≈ 0.412 µM) | 7.2 (≈ 10.2 µM) | 26.5 (≈ 37.6 µM) | 6.87 (≈ 9.76 µM) | 35.6 (≈ 50.6 µM) | > 10 | > 10 | 2.36 (≈ 3.35 µM) | 4.77 (≈ 6.78 µM) | 1.62 (≈ 2.3 µM) | 2.48 (≈ 3.52 µM) | COc1ccc2cc1Oc1ccc(cc1)C[C@H]1c3cc(c(OC)cc3CCN1C)Oc1c(OC)c(OC)c(CN3CC=CC3)c3c1[C@H](C2)N(C)CC3 [BS-TE-329] | anti-K562/adr activity increase over tetrandrine ([3]; compared with tetrandrine): ~4 fold; IC50 [5]: 2.05 µg/mL (≈ 2.91 µM); IC90 [5]: 3.9 µg/mL (≈ 5.54 µM); anti-RPMI8226 activity increase over tetrandrine ([6]; compared with tetrandrine): ~90 fold; IC50 [13]: 8.16 µg/mL (≈ 11.6 µM); IC90 [13]: 15.9 µg/mL (≈ 22.5 µM); IC50 [14]: 1.26 µg/mL (≈ 1.79 µM); IC90 [14]: 1.82 µg/mL (≈ 2.59 µM) |

— US9133207B2, “Tetrandrine derivatives with substituted 5-carbon, preparation method and use thereof” (Hangzhou Bensheng Pharmaceutical Co., Ltd., priority 2011, dated 2015)
